The test system of one test is L. major promastigote. The test is described as follows: Primary screening resazurin viability assay, L. major promastigotes. Type of test: cell-based, Leishmania major. The following applies: Leishmania major; promastigotes; 10-point dose response, 2-fold dilutions from 20 µM; read-out: L. major EC50 promastigote. Here is the method: (§1) L. major MHOM/IL/81/FRIEDLIN and L. donovani MHOM/ET/67/HU3 promastigotes were cultivated at 28°C in axenic M199 culture medium (Welgene, S. Korea) supplemented with 10% heat-inactivated fetal bovine serum (FBS) (Gibco, United States) and 1% streptomycin/penicillin (Gibco, United States).
(§2) After compound addition to the assay plate (Evotec™ 384-well microplate, Germany), 20,000 L. major promastigote parasites from an exponential phase culture (∼10^7 parasites/mL) were diluted in M199, seeded in 50 µL per well using FlexDrop™ and incubated at 28°C for 28 hours, followed by the addition of 5 mM resazurin sodium salt (Sigma R7017, United States) and further incubation for 20 hours at 28°C. After a 48-hour exposure to compounds, the reference drug (EtBr) or control (1% DMSO), the parasites were fixed with 2% paraformaldehyde (PFA) and plates were read in Victor3™ (Perkin Elmer) at 530 nm (excitation) and 590 nm (emission). This fixation step is not necessary for resazurin readout, but allows flexibility in the automation schedule and increases assay robustness by decreasing metabolic variability between populations across wells and plates.
The effect of compounds on Leishmania viability was assessed by fluorometric measurement of resazurin reduction. […] Reference compounds for antileishmanial activity (EtBr, amphotericin B, miltefosine and paromomycin) were tested (Fig. 1B) as a step of the validation process. […] Assay validation was performed on three separate days using 33 microplates (384 wells/plate) containing only controls. […] After assay validation, we screened a 4,000-compound library containing a number of compounds with known pharmacological properties. […] This assay was done in duplicate and results of each concentration assay are represented as individual graphs in Fig. 1D.

Another test concerns L. donovani promastigote. Nature of the test: Resazurin viability assay, L. donovani promastigotes. The following applies: Leishmania donovani; promastigotes; 10-point dose response, 2-fold dilutions from 20 µM; read-out: L. donovani EC50 promastigote. The format is cell-based. As for the experimental part: as §1
as §2, with “plates. Z-factor, calculated as 1−(3×σp+3×σn)/(|μp−μn|), where μp, σp, μn and σn are the means (μ) and standard deviations (σ) of both the positive (p) and negative (n) controls, and other parameters, including DRC plates for verification of the reference drug EC50 (accepted if within the range of 3× higher or lower than a defined value from the literature), coefficient of variation not higher than 10% in the controls and edge effect evaluation, were used for screening validation and hits selection.” for “plates.”
Infection of human macrophage cells in vitro with Leishmania has been previously described as a suitable model for screening and was adopted for our purpose. The 124 active compounds selected from the secondary assay were tested in 10-point dose response with 2-fold serial dilutions starting from 20 µM against promastigotes and intracellular amastigotes of L. major and L. donovani infecting macrophages. The average Z-factor calculated per plate based on the reference drug (amphotericin B) and carrier (1% DMSO) was 0.62 for L. major infection and 0.59 for L. donovani infection, and minimum accepted Z-factor for the analysis was 0.5.

The next test addresses CYP3A4 (Homo sapiens, UniProt P08684). The test is described as follows: CYP450 inhibition assay, fluorescent probe BFC. The format is in vitro ADME. The following applies: for pIC50: individual human P450s, eight-point curve. As for the experimental part:
Individual fluorescent probe substrates were used with individual rhCYP isozymes and fluorescence detection according to a previously published method. Probe substrates were 7-benzyloxy-4-(trifluoromethyl)-coumarin (BFC) for CYP3A4 and 3-[2-(N,N-diethyl-N-methylammonium)ethyl]-7-methoxy-4-methylcoumarin (AMMC) for CYP2D6 in 0.5% DMSO. IC50 was determined using an eight-point concentration curve with three-fold serial dilutions. Victor3™ (Perkin Elmer) was used for quantification in the fluorescent method (Perkin Elmer Life and Analytical Sciences).

pEC50, pIC50: −log10 of the molar value. Bounds are passed on as bounds.

Chain of CYP3A4 (P08684 whole entry): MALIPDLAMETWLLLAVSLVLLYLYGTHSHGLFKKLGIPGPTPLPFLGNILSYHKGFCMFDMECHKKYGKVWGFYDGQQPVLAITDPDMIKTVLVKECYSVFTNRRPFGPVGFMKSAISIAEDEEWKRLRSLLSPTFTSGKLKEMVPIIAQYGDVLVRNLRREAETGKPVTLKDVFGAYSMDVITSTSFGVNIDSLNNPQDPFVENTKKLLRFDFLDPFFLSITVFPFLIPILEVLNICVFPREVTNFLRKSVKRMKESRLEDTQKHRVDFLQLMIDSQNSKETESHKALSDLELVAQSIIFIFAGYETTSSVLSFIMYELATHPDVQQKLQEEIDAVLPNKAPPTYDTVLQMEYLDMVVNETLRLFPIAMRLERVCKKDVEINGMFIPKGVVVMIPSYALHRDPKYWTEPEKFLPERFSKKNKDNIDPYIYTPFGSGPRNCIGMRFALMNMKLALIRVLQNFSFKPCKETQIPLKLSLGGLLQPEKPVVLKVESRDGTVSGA

For the compound `COc1cc(/C=N/NC(=O)c2cccc(C)c2O)ccc1OCc1ccccc1` [CA272], the pEC50 in the test on L. major promastigote is 5.57; in the test on L. donovani promastigote it was 5.57; at CYP3A4, 5.47. On CYP3A4, this compound gave a negative-log IC50 (pIC50) of 5.47.

As to `Cc1nc2c(Cl)cccc2c(O)c1CN1CCCCC1C` (centres unmarked) [CH872], the pEC50 was 7.00 with L. major promastigote, 7.30 in the test on L. donovani promastigote and less than 5.00 at CYP3A4. On CYP3A4, the negative logarithm of the IC50 (pIC50) is less than 5.00.

These data come from article PMC2864270 (PLoS Neglected Tropical Diseases, 2010).
